“Also recorded” adds a separate entry of the source. Where two headings read alike, the source gives them in different places. Ends that are not written are not given here.

In data set [1] the test system is streptozotocin-induced diabetic mice. The conditions noted are these: cited from earlier work.
The conditions of data set [2]: cited from earlier work.
Data set [3] concerns NOD mice with spontaneous diabetes. Nature of the data set: Therapy regimen of LSF and INGAP in spontaneously diabetic NOD mice maintained on insulin pellets. In kind it is in vivo. To be noted: for blood glucose levels (non-fasting) at the end of treatments: FIG. 3, diabetic NOD mice, LSF 27 mg/kg/day continuous sc infusion, INGAP 500 μg qd ip; for remission rate of diabetes: FIG. 5, diabetic NOD mice observed after all therapy stopped. As to the method: The following example illustrates a therapy regimen (FIG. 1) involving INGAP peptide and LSF for building and preserving β-cell mass and increasing insulin production in a mammal. NOD mice were monitored for diabetes by measuring blood glucose levels. Mice were allowed to develop spontaneous diabetes, which usually occurs around the age of 18 weeks. Non-fasting blood glucose levels >250 mg/dL measured for 3 different days was considered evidence of diabetes onset. Shortly after diagnosing diabetes, the NOD mice received an insulin pellet implanted subcutaneously in order to maintain them during the treatment period of 6 to 7 weeks. The pellet provides 0.1 U/d of bovine insulin. The mice were then assigned to one of 5 treatment groups: Group 1—Normal saline via continuous subcutaneous infusion (placebo). The saline was delivered via an implantable subcutaneous osmotic mini-pump. The mice received the placebo for 4 weeks and continued on insulin for another 2 weeks. The insulin was then stopped, and the mice observed to determine if the treatment was effective. Group 2—LSF (27 mg/kg/day via continuous subcutaneous infusion) alone. The LSF was delivered via an implantable subcutaneous osmotic mini-pump. The mice received LSF for 4 weeks, continued on insulin for another 2 weeks, and then observed to determine if the treatment was effective. Group 3—INGAP (500 μg qd ip) alone. The mice received INGAP and insulin for 6 weeks, the treatment was then stopped, and the mice observed to determine if the treatment was effective. Group 4—LSF (27 mg/kg/day via continuous subcutaneous infusion) plus INGAP (500 μg qd ip) administered concomitantly. The LSF was delivered via an implantable subcutaneous osmotic mini-pump. The mice received LSF for 4 weeks and INGAP and insulin for 6 weeks. The treatments were then stopped and the mice observed to determine if the treatment was effective. Group 5—LSF (27 mg/kg/day via continuous subcutaneous infusion) for a week of pretreatment as monotherapy. Here the immune system was first treated to ‘cool it off’ so that any new islets would be growing in a less hostile environment. INGAP was then added to the treatment regimen (at 500 μg qd ip) and administered concomitantly with the LSF for an additional 5 weeks. LSF treatment was discontinued at week 6. INGAP and Insulin were continued for 1 more week until week 7. All therapy was then discontinued and the mice observed to determine if the treatment was effective. See treatment timeline depicted in FIG. 2.

Data set [4] relates to non-obese diabetic (NOD) mice. To be noted: LSF alone, when hyperglycemia became detectable; cited from earlier work.

Turning to IGLHDPSHGTLPNGS [INGAP], the “effect on islet formation and glycemia” value in data set [1] is “restore euglycemia”. Besides, in data set [2] (in vivo), the “safety in clinical studies” value is reported as “safe”. In addition, in data set [3], the “blood glucose levels (non-fasting) at the end of treatments” value is “little or no effect” and the “remission rate of diabetes” value was determined as 10%. In addition, the “insulin production of treated animals” value in data set [3] (FIG. 15) is “producing insulin”.
For `C[C@@H](O)CCCCn1c(=O)c2c(ncn2C)n(C)c1=O` [LSF, 1-(5-R-hydroxyhexyl)-3,7-dimethylxanthine], the “safety in clinical studies” value in data set [2] (clinical studies, open IND on file with FDA) is listed as “safe”. The “reversal of autoimmune diabetes” value in data set [4] is “did not reverse”. Moreover, in data set [3], the “blood glucose levels (non-fasting) at the end of treatments” value is recorded as “little or no effect” and the “remission rate of diabetes” value is “no remission; also recorded: No mice”.

(Values after US20100331248A1, “COMPOSITIONS AND METHODS FOR TREATING DIABETES USING LISOFYLLINE AND ISLET NEOGENESIS ASSOCIATED PEPTIDE” (DIAKINE THERAPEUTICS, INC., priority 2008, published 2010).)
